Data: patent US20210353595A1, “USE OF MELATONIN IN PREPARATION OF MEDICAMENT FOR INHIBITING AND/OR KILLING BACTERIUM” (priority 2020, published 2021)

Assays:
Pasteurella multocida [1] = assay: Killing bacteria by melatonin above MBC (OD600, living bacteria count); format: cell-based; settings: for time to kill all bacteria: FIGS. 2 and 3
Description: Into 100 mL of fresh and sterile Martin broth medium, 1 mL of Pasteurella multocida (1×10^9 CFU) at the logarithmic growth stage was added. The bacteria were cultured in a constant-temperature shaker under conditions of 37° C. and 220 rpm for 8 hours. […] After the addition of MT, the bacterial culture was continuously measured for OD600 every 20 minutes to depict a growth curve under the action of melatonin at a concentration higher than the MBC. At the same time, 100 μL of the bacterial culture was evenly coated on a Martin agar plate, and incubated at 37° C. for 24 h so as to calculate the number of living bacteria for bacterial counting.

Pasteurella multocida [2] = assay: Bacteriostatic activity, bacterial growth curve (OD600); format: cell-based; settings: MT 1, 1.5 and 2 mg/mL (lower than MBC); OD600 every 2 hours; FIG. 1
Description: In order to further verify the bacteriostatic activity of melatonin against Pasteurella multocida, the bacterial growth curve was determined in view of an increase of melatonin concentration. […] Then the bacteria were cultured in a shaker at a constant temperature of 37° C. at 220 rpm, and the bacterial culture was determined for OD600 every 2 hours with an ultraviolet spectrophotometer to detect the effect of melatonin on the bacterial growth curve. Each experiment was carried out for three times, and each group was set in triplicate.

inflammatory cytokines = assay: RT-PCR and ELISA of inflammatory cytokines after Pasteurella multocida infection; format: in vivo, C57BL/6 mice; settings: 24 hours after infection, lung tissues and serum
Description: The mouse lung tissue samples were collected, and the total RNA of mouse lung tissues was extracted according to the instructions of the total RNA extraction kit (Invitrogen). According to the instructions of a TaKaRa reverse transcription kit, cDNA was prepared and reverse transcribed with the general process as follows:
The process of qRT-PCR was carried out with reference to previous studies, and (3-actin was used as a reference gene to normalize the transcription level of the target gene. The specific primer sequences used are shown in Table 2. The relative expression level of the gene was calculated according to the equation 2^−(ΔΔCt), wherein ΔΔCt=(CT of the target gene−Ct of the internal reference) of the experimental group−(Ct of the target gene−Ct of the internal reference) of the control group.
ELISA samples were divided into serum samples and lung tissue homogenate samples. Among them, the process of collecting serum was collecting mouse whole blood from the eyeball, storing overnight at 4° C., centrifuging at 5000 rpm for 10 min, collecting the supernatant and storing it at −20° C. for later use. While the preparation process of the mouse lung homogenate was collecting lung tissues, adding 2 mL sterile normal saline to prepare a homogenate, then repeatedly freezing and thawing the homogenate in liquid nitrogen (5 min) and ice-water bath for 3 times, then centrifuging at 4° C. and 12000 rpm for 10 min, and collecting the supernatant for later use. According to the instructions of the kit, the serum and the supernatant of lung tissue homogenate as prepared were detected for IL-10, IL-4, IL-6, IL-10, TNF-α and IFN-γ (eBioscience).

P. multocida cells = assay: SEM and TEM morphology of bacterial cells; format: cell-based, Pasteurella multocida; settings: MT 1, 2 or 3 mg/mL, 8, 12 or 16 hours
Description: The effect of melatonin on the morphologies of P. multocida cells were evaluated employing SEM and TEM. 1 mL of fresh Pasteurella multocida (1×10^9 CFU) at the logarithmic growth stage was added into 100 mL of fresh Martin liquid medium containing different concentrations (1, 2 or 3 mg/mL) of MT. MT-free DMSO was used as a solvent control group and ampicillin (100 μg/mL) was used as a positive control group. All cultures were shaken at 220 rpm in a shaker at 37° C. for 8 hours, 12 hours or 16 hours. The bacterial samples were centrifuged at 3000 r/min for 10 minutes, the supernatant was removed, and cells were collected and washed with PBS for 3 times. Then the cells were fixed with a fixation solution of 2.5% fresh glutaraldehyde for 6 hours, and washed with PBS for 3 times, each time for 10 minutes. Subsequently, the SEM samples were dehydrated with 50%, 70%, 80% and 90% ethanol for 15 minutes respectively, and then dehydrated with 100% ethanol for 3 times, each time for 30 minutes. Ethanol was removed by washing with tert-butyl alcohol for three times, each time for 30 minutes. The samples were dried by a freeze dryer and plated with 10 nm of gold film by an ion sputtering device. The samples were examined using a field scanning electron microscope (FESEM, Hitch SU8010).
The TEM samples were fixed with 1%-2% […] for 2-3 hours, and washed with […] 3 times, each time for 10 minutes. The samples were dehydrated with 30%, 50%, 70%, 80% and 90% ethanol for 20 minutes respectively, and then dehydrated with 100% ethanol 3 times, each time for 30 minutes. Ethanol was replaced with acetone three times, each time for 30 minutes. The bacterial samples were placed on a copper grid with a formvar membrane, and negatively stained with phosphotungstic acid (2% v/v, pH=6.7). The surface area of the sample was less than 0.2 mm×0.2 mm, and slice thickness was between 50 and 90 nm (Lycra UC7). The samples were detected by TEM (Hitachi H-7650) at 80 kV, and photographs of the samples were taken by a Gatan832 CCD camera (Gatan). […]

[3] = system: citrate synthase in Pneumococcus; assay: Citrate synthase activity of bacteria after treatment; format: cell-based, Diplococcus pneumoniae; settings: MT 1-3 mg/mL, 12 h, also with exogenous citric acid, FIG. 28
Description: Further, 1 mL of Klebsiella pneumoniae, Pseudomonas aeruginosa, Diplococcus pneumoniae and Streptococcus pneumoniae at the logarithmic growth stage was added into 100 mL of fresh and sterile Martin broth liquid medium containing different concentrations of melatonin and citric acid (MT-1 mg/mL, MT-2 mg/mL, MT-3 mg/mL, CA-1 mg/mL, CA-2 mg/mL, CA-3 mg/mL, MT-1 mg/mL-CA-1 mg/mL, MT-2 mg/mL-CA-2 mg/mL, MT-3 mg/mL-CA-3 mg/mL) added was. Melatonin-free DMSO was used as the solvent control group, and the bacterial cells were cultured in a constant-temperature shaker at 37° C. and 220 rpm for 12 h. Thereafter, 1 mL of the bacterial solution was pipetted and centrifuged at 3000 r/min for 10 minutes. The bacterial cells were then collected and determined for citrate synthase activity according to the protocol of the instructions for the kit. Each experiment was repeated three times, and each group was set in triplicate.

`COc1ccc2[nH]cc(CCNC(C)=O)c2c1` [melatonin, N-acetyl-5-methoxytryptamine] was tested, and the “time to kill all bacteria” value (Pasteurella multocida [1]; 4 mg/mL of melatonin, added after 8 hours culture) was 10 h, the bactericidal effect (Pasteurella multocida [1]; concentration higher than the MBC (4, 8, 10 mg/mL)) was “significant bactericidal effect in a dose-dependent manner” and the “time to kill all bacteria” value (Pasteurella multocida [1]; higher concentration of melatonin (8, 10 mg/mL)) was 4 h. The “bacterial growth (growth curve, OD600)” value (Pasteurella multocida [2]) was “significantly inhibits bacterial growth”, the “expression of IFN-γ” value (inflammatory cytokines) was “significantly reduced” and the “expression of IL-6” value (inflammatory cytokines) was “significantly reduced”. For the same molecule, the “expression of TNF-α” value (inflammatory cytokines) was “significantly reduced”, the “transcription and expression of IL-4” value (inflammatory cytokines) was “promoted” and the “transcription and expression of IL-10” value (inflammatory cytokines) was “promoted”. The “cell morphology in SEM analysis” value (P. multocida cells; FIG. 10) was “many holes passing through the OM, peptidoglycan (PG) layers and CM”, the “cell morphology in TEM image” value (P. multocida cells; FIG. 11) was “obvious cytoplasmic vacuolization” and the “enzyme activity of citrate synthase” value [3] was “not influenced”.
